The structures appear in SMILES notation. Structures can show the parent of a compound that is named as a salt.

What is called inhibition is the percentage by which the read-out fell short of the control.

For one assay, the target named is T1, protein farnesyltransferase (Rattus norvegicus, UniProt Q02293+Q04631).
T1 construct: Rat brain protein farnesyltransferase activity is measured; from tissue; host or cells: rat brain; purified according to Reiss et al., Cell 62:81-88 (1990), steps one through three
Kind of assay: in vitro inhibition of protein farnesyltransferase (scintillation proximity assay, biotin-K Ras B fragment). It is filed as biochemical. The settings on record: at 1 × 10^-5 M. The gist of the method:
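Rat brain enzyme, purified through three steps, in a scintillation proximity assay kit with biotin-K Ras B fragment substrate at 0.1 mM final. Value is % inhibition of farnesylation.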
As for `CSCC[C@H](NC(=O)c1ccc(NC(=O)CCN)cc1-c1ccccc1)C(=O)O` [Example 750], the inhibition at 10 µM was determined as 44%.
On the same count and under the same terms, to `CSCC[C@H](NC(=O)c1ccc(CNc2cccc(CO)c2)cc1-c1ccccc1)C(=O)O` [Example 680] belongs 58%; to `CSCC[C@H](NC(=O)c1ccc(CN[C@H](CC2CCCCC2)[C@H](O)[C@H](O)CC(C)C)cc1-c1ccccc1)C(=O)O` [Example 715], 67%; to `CSCC[C@H](NC(=O)c1ccc(CNCCC2CCCCC2)cc1-c1ccccc1)C(=O)O` [Example 663], 43%.

Still in this assay, the particulars now being: at 1 × 10^-6 M.
With `CSCC[C@H](NC(=O)c1ccc(S(=O)(=O)NC2CCN(Cc3ccccc3)CC2)cc1-c1ccccc1C)C(=O)O` [Example 773], the “% inhibition of farnesyltransferase” value came to 41%.
With `Cc1ccccc1-c1cc(CN(C2CC2)C(C)(C)Cc2ccccc2)ccc1C(=O)N[C@@H](CCS(C)(=O)=O)C(=O)O` [Example 319], the “% inhibition of farnesyltransferase” value was determined as 98%.
On the same count and under the same terms, to `CSCC[C@H](NC(=O)c1ccc(CN(C2CC2)C2(CC3CCCCC3)CCC2)cc1-c1ccccc1C)C(=O)O` [Example 330] belongs 98%; to `CSCC[C@H](NC(=O)c1ccc(CS(=O)(=O)Cc2ccccc2)cc1-c1ccccc1C)C(=O)O` [Example 555], 85%; to `CSCC[C@H](NC(=O)c1ccc(-c2cccc(-c3ccccc3)c2)cc1-c1ccccc1C)C(=O)[O-].[Li+]` [Example 787], 70%.
The same measure, in the same setting: to `CSCC[C@H](NC(=O)c1ccc(-c2ccccc2-c2ccccc2)cc1-c1ccccc1C)C(=O)[O-].[Li+]` [Example 786] belongs 34%.
As for `CSCC[C@H](NC(=O)c1ccc(CN(C(C)C)C2(CC3CCCCC3)CCC2)cc1-c1ccccc1C)C(=O)O` [Example 332], the “% inhibition of farnesyltransferase” value amounted to 26%.
For the molecule `CSCC[C@H](NC(=O)c1ccc(S(=O)(=O)NCCN2CCOCC2)cc1-c1ccccc1C)C(=O)O` [Example 775], the “% inhibition of farnesyltransferase” value amounted to 32%.
For `Cc1ccccc1-c1cc(CCc2ccccc2Oc2ccccc2)ccc1C(=O)N[C@@H](CC[S+](C)[O-])C(=O)O` (some centres unmarked) [Example 456], the “% inhibition of farnesyltransferase” value came out at 81%.
`CSCC[C@H](NC(=O)c1ccc(COCc2ccccc2)cc1-c1ccccc1C)C(=O)NS(=O)(=O)c1ccc(C)cc1` [Example 582]: the “% inhibition of farnesyltransferase” value is given as 99%.
Still for that read-out and setting: the figure for `CSCC[C@H](NC(=O)c1ccc(CN(C2CC2)C2(Cc3ccccc3)CCC2)cc1-c1ccccc1C)C(=O)O` [Example 329] is 98%.

Staying with this assay, now noted: at 1 × 10^-6 M; read-out: % inhibition of farnesyltransferase.
Consider `CCSC[C@H](CC1CCCCC1)NCc1ccc(C(=O)N[C@@H](CCSC)C(=O)OCOC(=O)C(C)(C)C)c(-c2ccccc2C)c1` [Example 764, hydrochloride salt], for which the inhibition at 1 µM was 88%.
As for `CSCC[C@H](NC(=O)c1ccc(CNCCS)cc1-c1ccccc1)C(=O)O` [Example 626], the inhibition at 1 µM was 61%.
On the same count and under the same terms, to `CSCC[C@H](NC(=O)c1ccc(CN(Cc2ccoc2)C(C)C)cc1-c1ccccc1C)C(=O)O` [Example 832, N-[4-N-(furan-3-ylmethyl)-N-isopropylainomethyl-2-(2-methylphenyl)benzoyl]methionine lithium salt] belongs 80%; to `CSCCC(NC(=O)c1ccc(NC(=O)Cc2cscn2)cc1-c1ccccc1)C(=O)O` (centres unmarked) [Example 162, [4-(thiazo-4-ylmethylcarbonyl)amino-2-phenylbenzoyl]methionine], 12%.
Still for that read-out and setting: the figure for `CSCC[C@H](NC(=O)c1ccc(NC(=O)Cc2ccc(C)cc2)cc1-c1ccccc1C)C(=O)O` [Example 541, N-[4-N-(4'-methylphenylacetyl)amino-2-(2-methylphenyl)benzoyl]methionine lithium salt] is 37%.
Same read-out and setting: to `CSCC[C@H](NC(=O)c1ccc(CN(CC(c2ccccc2)c2ccccc2)c2ccccc2)cc1-c1ccccc1C)C(=O)O` [Example 509] belongs 77%; to `CSCC[C@H](NC(=O)c1ccc(CN(C)CC(O)CO)cc1-c1ccccc1C)C(=O)O` (some centres unmarked) [Example 719], 90%.

Staying with this assay, now noted: at 1 × 10^-7 M.
On to `CSCC[C@H](NC(=O)c1ccc(COCc2cc3ccccc3o2)cc1-c1ccccc1C)C(=O)[O-].[Li+]` [Example 533], for which the “% inhibition of farnesyltransferase” value was found to be 91%.
`CSCC[C@H](NC(=O)c1ccc(COCCCCc2ccccc2)cc1-c1ccccc1C)C(=O)O` [Example 601]: the “% inhibition of farnesyltransferase” value is on record as 92%.
Same read-out and setting: the figure for `CSCC[C@H](NC(=O)c1ccc(COCCc2ccc3ccccc3c2)cc1-c1ccccc1C)C(=O)[O-].[Li+]` [Example 593] is 86%; for `CSCC[C@H](NC(=O)c1ccc(CCc2ccc(Oc3ccccc3N)cc2)cc1-c1ccccc1C)C(=O)O` [Example 857] it is 92%.
As for `CSCC[C@H](NC(=O)c1ccc(COCc2ccc(C)cc2)cc1-c1ccccc1C)C(=O)[O-].[Li+]` [Example 579], the “% inhibition of farnesyltransferase” value was found to be 92%.
In the case of `CSCC[C@H](NC(=O)c1ccc(COc2ccc3ccccc3c2)cc1-c1ccccc1C)C(=O)O` [Example 573], the “% inhibition of farnesyltransferase” value is 72%.
Still for that read-out and setting: to `CCSCC(CC1CCCCC1)N(Cc1ccc(C(=O)N[C@@H](CCSC)C(=O)O)c(-c2ccccc2C)c1)CC(C)C` (some centres unmarked) [Example 945, N-[4-N-(3-Cyclohexyl-1-ethylthiopropan-2-yl)-N-isobutylaminomethyl-2-(2-methylphenyl)benzoyl]-methionine] belongs 80%; to `CSCC[C@H](NC(=O)c1ccc(COCc2ccc(-c3ccc(Cl)cc3)o2)cc1-c1ccccc1C)C(=O)NS(C)(=O)=O` [Example 818], 78%; to `CCCC(CCC)NOCc1ccc(C(=O)N[C@@H](CCSC)C(=O)O)c(-c2ccccc2C)c1` [Example 929], 81%.
For `CSCC[C@H](NC(=O)c1ccc(CSc2ccccc2C(C)C)cc1-c1ccccc1C)C(=O)O` [Example 739], the “% inhibition of farnesyltransferase” value came to 83%.

The same assay, now with this note: at 1 × 10^-7 M; read-out: % inhibition of farnesyltransferase.
Take `CCS(=O)(=O)C[C@H](CC1CCCCC1)NCc1ccc(C(=O)N[C@@H](CCS(C)(=O)=O)C(=O)O)c(-c2ccccc2C)c1` [Example 621, N-[4-(3-cyclohexyl-1-ethylsulfonylpropan-2-ylaminomethyl)-2-(2-methylphenyl)benzoyl]-2-amino-4-methanesulfonylbutanoic acid Lithium Salt]: the inhibition at 0.1 µM amounted to 98%.
As for `CSCC[C@H](NC(=O)c1ccc(CNC(Cc2ccccc2)Cc2ccccc2)cc1-c1ccccc1C)C(=O)O` [Example 523, N-[4-N-(1,3-diphenylpropan-2-yl)aminomethyl-2-(2-methylphenyl)benzoyl]methionine lithium salt], the inhibition at 0.1 µM was found to be 97%.
On the same count and under the same terms, to `CSCC[C@H](NC(=O)c1ccc(CN[C@H](CO)C2CCCCC2)cc1-c1ccccc1C)C(=O)O` [Example 520, N-[4-N-(2-cyclohexyl-1-ethan-1-ol-2-yl)aminomethyl-2-(2-methylphenyl)benzoyl]methionine lithium salt] belongs 97%.
The same measure, in the same setting: the figure for `CSCC[C@H](NC(=O)c1ccc(CNCC(=O)N(Cc2ccccc2)Cc2ccccc2)cc1-c1ccccc1C)C(=O)O` [Example 914, N-[4-(N-(N,N-dibenzylacetamido)aminomethyl)-2-(2-methylphenyl)benzoyl]methionine] is 91%; for `CSCC[C@H](NC(=O)c1ccc(CN(Cc2ccc(Cl)cc2)c2ccccc2)cc1-c1ccccc1C)C(=O)O` [Example 781, N-[4-N-(N-phenyl-N-(4-chlorobenzyl)aminomethyl)-2-(2-methylphenyl)benzoyl]methionine lithium salt] it is 91%.

The same assay, now with this note: at 1 × 10^-8 M.
On to `CSCC[C@H](NC(=O)c1ccc(CCc2ccc(Oc3ccc(Cl)cc3)cc2)cc1-c1ccccc1C)C(=O)O` [Example 860], for which the “% inhibition of farnesyltransferase” value is given as 85%.

The same assay, now with this note: at 1 × 10^-8 M; read-out: % inhibition of farnesyltransferase.
With `COc1cccc(CN(Cc2ccc(C(=O)N[C@@H](CCSC)C(=O)O)c(-c3ccccc3C)c2)c2ccccc2)c1` [Example 779, N-[4-N-(N-phenyl-N-(3-methoxybenzyl)aniinomethyl)-2-(2-methylphenyl)benzoyl]methionine lithium salt], the inhibition at 0.01 µM is 70%.
As for `CCSC[C@H](CC(C)C)NCc1ccc(C(=O)N[C@@H](CCSC)C(=O)O)c(-c2ccccc2C)c1` [Example 905, N-[4-(N-(1-ethylthio-4-methylpentan-2-yl)aminomethyl)-2-(2-methylphenyl)benzoyl]-methionine], the inhibition at 0.01 µM was found to be 86%.
As to `COc1ccc(N(Cc2ccccc2)Cc2ccc(C(=O)N[C@@H](CCSC)C(=O)O)c(-c3ccccc3C)c2)cc1` [Example 840, N-[4-(N-benzyl-N-(4-methoxyphenyl)aaminomethyl)-2-(2-methylphenyl)benzoyl]methionine lithium salt], the inhibition at 0.01 µM turned out to be 73%.
As for `CSCC[C@H](NC(=O)c1ccc(CN(Cc2ccc3c(c2)OCO3)c2cnccn2)cc1-c1ccccc1C)C(=O)O` [Example 838, N-[4-N-(1,3-benzodiox-5-yl)-N-pyridizin-2-ylaminomethyl-2-(2-methylphenyl)benzoyl]methionine lithium salt], the inhibition at 0.01 µM came out at 92%.

The same assay, now with this note: read-out: % inhibition of farnesyltransferase.
Regarding `CCOC(=O)N1CCC(NCc2ccc(C(=O)N[C@@H](CCSC)C(=O)O)c(-c3ccccc3C)c2)CC1` [Example 806, N-[4-(1-ethoxycarbonylpiperidin-4-ylaminomethyl)-2-(2-methylphenyl)benzoyl]methionine lithium salt], the inhibition at 1 µM was 72%.
As for `CSCC[C@H](NC(=O)c1ccc(CN(C)CCC2CCCCC2)cc1-c1ccccc1C)C(=O)O` [Example 608, N-[4-(N-(2-cyclohexylethyl)-N-methylaminomethyl)-2-(2-methylphenyl)benzoyl]methionine Lithium Salt], the inhibition at 0.01 µM was 91%.

The values are drawn from patent US6310095A, “Inhibitors of protein isoprenyl transferases” (University of Pittsburgh, priority 1998, dated 2001).
